Results taken from ChEMBL document CHEMBL5244219, “Recent developments of quinolone-based derivatives and their activities against Escherichia coli” (Eur J Med Chem, 2018).
Converted amounts (≈) assume the structure as drawn.

Assays:
Escherichia coli [1] = experiment: Antibacterial activity against Escherichia coli ATCC 25922 infected in iv dosed mouse assessed as bacterial growth inhibition; format: functional
Escherichia coli [2] = experiment: Antibacterial activity against Escherichia coli ATCC 25922 infected in iv dosed rat assessed as log reduction in bacterial count in lung homogenate at 5 mg/kg; format: functional
Escherichia coli [3] = experiment: Antibacterial activity against Escherichia coli DC0 assessed as bacterial growth inhibition by agar dilution method; format: functional
Escherichia coli [4] = experiment: Antibacterial activity against Escherichia coli DC2 assessed as bacterial growth inhibition by agar dilution method; format: functional
[5] = Half life in marmoset at 3 mg/kg, iv; format: ADME, organism-based; conditions: callitrichinae sp., in vivo
[6] = AUC in marmoset at 3 mg/kg, iv; format: ADME, organism-based; design: dose 3 mg/kg, route iv; conditions: callitrichinae sp., in vivo
Escherichia coli [7] = experiment: Potency index, ratio of ceftazidime MIC to compound IC50 for antibacterial activity against Escherichia coli DC0; format: functional
Escherichia coli [8] = experiment: Potency index, ratio of ceftazidime MIC to compound IC50 for antibacterial activity against Escherichia coli DC2; format: functional
[9] = Protein binding in marmoset plasma; format: ADME, cell-free, Callithrix jacchus; conditions: read-out: PPB (converted)
Escherichia coli [10] = experiment: Antibacterial activity against Escherichia coli ATCC 700603 assessed as bacterial growth inhibition by agar dilution method; format: functional
Escherichia coli [11] = experiment: Potency index, ratio of norfloxacin MIC to compound IC50 for antibacterial activity against Escherichia coli ATCC 700603; format: functional
Escherichia coli [12] = experiment: Potency index, ratio of ciprofloxacin MIC to compound IC50 for antibacterial activity against Escherichia coli ATCC 700603; format: functional
Escherichia coli [13] = experiment: Potency index, ratio of clinafloxacin MIC to compound IC50 for antibacterial activity against Escherichia coli ATCC 700603; format: functional
Escherichia coli [14] = experiment: Potency index, ratio of chloromycin MIC to compound IC50 for antibacterial activity against Escherichia coli ATCC 700603; format: functional
Escherichia coli [15] = experiment: Antibacterial activity against Escherichia coli assessed as bacterial growth inhibition; format: functional
Escherichia coli [16] = experiment: In vivo antibacterial activity against Escherichia coli infected in sc dosed CD-1 mouse assessed as bacterial growth inhibition; format: functional; conditions: read-out: PD50
Escherichia coli [17] = experiment: In vivo antibacterial activity against Escherichia coli infected in po dosed CD-1 mouse assessed as bacterial growth inhibition; format: functional; conditions: read-out: PD50
Escherichia coli [18] = experiment: Antibacterial activity against nalidixic acid resistant Escherichia coli assessed as bacterial growth inhibition; format: functional
Escherichia coli [19] = experiment: Antibacterial activity against Escherichia coli KC-14 infected in po dosed mouse assessed as bacterial growth inhibition; format: functional; conditions: Escherichia coli, KC-14, po, read-out: ED50
[20] = Acute toxicity in iv dosed mouse assessed as lethal dose; format: organism-based; conditions: in vivo
Escherichia coli [21] = experiment: Antibacterial activity against Escherichia coli ATCC 8739 assessed as bacterial growth inhibition by agar dilution method; format: functional
Escherichia coli [22] = experiment: Antibacterial activity against Escherichia coli assessed as bacterial growth inhibition measured after 18 hrs by two-fold serial dilution method; format: functional

**Q.** Which ED50 (Escherichia coli [1]) does the source give for `CN1CCN(c2cc3c(cc2F)c(=O)c(C(=O)O)cn3-c2ccc(OP(=O)(O)O)cc2)CC1` here?
**A.** Its ED50 is 0.74 mg/kg.

**Q.** What about the “log(activity)” value (Escherichia coli [2]) of the same compound?
**A.** The value was 2.

**Q.** For `CCn1cc(C(=O)NCC2=C(C(=O)O)N3C(=O)[C@@H](NC(=O)/C(=N\OC(C)(C)C(=O)O)c4csc(N)n4)C3SC2)c(=O)c2cc(O)c(O)cc21` (stereo in doubt), which MIC (Escherichia coli [3]) is on record?
**A.** Its MIC is 8 ng/mL (≈ 0.0112 µM).

**Q.** What about the MIC (Escherichia coli [4]) of the same compound?
**A.** The MIC was 8 ng/mL (≈ 0.0112 µM).

**Q.** And the half-life [5]?
**A.** Its half-life is 3.47 h.

**Q.** What about the AUC [6] of the same compound?
**A.** Its AUC is 238 µg·h/mL.

**Q.** And the Ratio (Escherichia coli [7])?
**A.** The Ratio was 8.

**Q.** And the Ratio (Escherichia coli [8])?
**A.** Its Ratio is 8.

**Q.** And the fraction unbound [9]?
**A.** The fraction unbound was 0.008.

**Q.** For `Cc1nc(N2CCOCC2)c([N+](=O)[O-])n1CC(O)CNC1CCN(c2c(F)cc3c(=O)c(C(=O)O)cn(C4CC4)c3c2Cl)C1` (configuration not stated), which MIC (Escherichia coli [10]) is on record?
**A.** Its MIC is 500 ng/mL (≈ 0.789 µM).

**Q.** And the Ratio (Escherichia coli [11])?
**A.** The Ratio was 2.

**Q.** What about the Ratio (Escherichia coli [12]) of the same compound?
**A.** Its Ratio is 2.

**Q.** What about the Ratio (Escherichia coli [13]) of the same compound?
**A.** Its Ratio is 2.

**Q.** What about the Ratio (Escherichia coli [14]) of the same compound?
**A.** The Ratio was 2.

**Q.** With `CCn1cc(C(=O)O)c(=O)c2cc(F)c(N3CCC4(CCN(C)C4)C3)cc21` (configuration not stated) as the compound, how does the MIC (Escherichia coli [15]) read?
**A.** Its MIC is 6 ng/mL (≈ 0.0161 µM).

**Q.** And the ED50 (Escherichia coli [16])?
**A.** Its ED50 is 8.4 mg/kg.

**Q.** What about the ED50 (Escherichia coli [17]) of the same compound?
**A.** The ED50 was 3.4 mg/kg.

**Q.** For `CN1CCN(c2c(F)cc3c(=O)c(C(=O)O)c4scc5n4c3c2OC5)CC1`, which MIC (Escherichia coli [18]) is on record?
**A.** The MIC was 200 ng/mL (≈ 0.514 µM).

**Q.** What about the ED50 (Escherichia coli [19]) of the same compound?
**A.** The ED50 was 1.01 mg/kg.

**Q.** And the LD50 [20]?
**A.** The LD50 was 237 mg/kg.

**Q.** With `CCn1cc(C(=O)O)c(=O)c2cc(F)c(N3CCN(CC(=O)c4ccoc4)CC3)cc21` as the compound, how does the MIC (Escherichia coli [21]) read?
**A.** The MIC was 49 ng/mL (≈ 0.115 µM).

**Q.** Which MIC (Escherichia coli [22]) does the source give for `CC(C)(CF)n1cc(C(=O)O)c(=O)c2cc(F)c(N3CC[C@H](N)C3)cc21` here?
**A.** Its MIC is 2 ng/mL (≈ 0.00547 µM).
